From PMC11811597, “Phenomics‐Based Discovery of Novel Orthosteric Choline Kinase Inhibitors” (Angewandte Chemie (International Ed. in English), 2025)

Target: T1, EHMT2 (G9a) (Homo sapiens, UniProt Q96KQ7)
T1 sequence (Q96KQ7 1-1210): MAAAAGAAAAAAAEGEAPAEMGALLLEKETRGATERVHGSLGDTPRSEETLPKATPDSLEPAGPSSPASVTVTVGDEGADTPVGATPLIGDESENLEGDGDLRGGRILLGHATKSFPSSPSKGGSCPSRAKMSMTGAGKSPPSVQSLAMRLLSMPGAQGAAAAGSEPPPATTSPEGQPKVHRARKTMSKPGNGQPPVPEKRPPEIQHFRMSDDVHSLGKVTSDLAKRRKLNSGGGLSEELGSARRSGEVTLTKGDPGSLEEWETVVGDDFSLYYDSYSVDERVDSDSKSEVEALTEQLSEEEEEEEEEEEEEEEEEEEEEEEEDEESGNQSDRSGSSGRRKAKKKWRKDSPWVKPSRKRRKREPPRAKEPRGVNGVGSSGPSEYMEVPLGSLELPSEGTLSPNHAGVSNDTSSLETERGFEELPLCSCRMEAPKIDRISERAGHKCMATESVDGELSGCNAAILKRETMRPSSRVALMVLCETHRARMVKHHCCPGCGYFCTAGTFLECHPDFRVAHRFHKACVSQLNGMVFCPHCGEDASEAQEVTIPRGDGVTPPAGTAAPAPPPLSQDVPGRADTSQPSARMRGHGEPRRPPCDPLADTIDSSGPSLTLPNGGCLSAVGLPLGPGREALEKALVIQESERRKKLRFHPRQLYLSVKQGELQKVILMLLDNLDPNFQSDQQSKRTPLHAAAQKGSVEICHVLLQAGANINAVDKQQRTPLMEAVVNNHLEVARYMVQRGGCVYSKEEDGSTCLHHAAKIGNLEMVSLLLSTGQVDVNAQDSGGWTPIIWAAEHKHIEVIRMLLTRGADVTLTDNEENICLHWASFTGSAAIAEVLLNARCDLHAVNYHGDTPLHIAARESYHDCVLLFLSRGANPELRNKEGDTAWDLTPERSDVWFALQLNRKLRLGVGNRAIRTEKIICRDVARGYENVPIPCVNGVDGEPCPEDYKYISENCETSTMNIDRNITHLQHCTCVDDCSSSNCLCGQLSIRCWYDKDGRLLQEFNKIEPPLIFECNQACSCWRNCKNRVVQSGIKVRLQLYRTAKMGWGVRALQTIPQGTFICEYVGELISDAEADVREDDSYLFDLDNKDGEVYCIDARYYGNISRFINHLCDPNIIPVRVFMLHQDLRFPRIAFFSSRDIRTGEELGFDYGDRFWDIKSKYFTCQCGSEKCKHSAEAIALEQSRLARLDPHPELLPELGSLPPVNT
Assay: Competitive affinity-based chemoproteomics (UNC0965 matrix), MCF7 lysate
Type: binding
Design: endogenous in cells; host or cells: MCF7 whole cell lysate
Settings: MCF7 lysates, 20 μM competitor
Procedure: A-366 and UNC0638 were purchased from Tocris. ARIAD and V-11-07-11 were purchased from Wuxi Apptec. UNC0737 and UNC0965 were synthesised as previously described.[1] Hemicholinium-3 and pyruvate kinase/lactic dehydrogenase enzymes were purchased from Sigma Aldrich. Aqueous and organic solvents were MS-grade and acquired by Sigma Aldrich unless stated otherwise.
MDA-MB-231, MCF7 and HEK293 cells were cultured in DMEM (Gibco, #11965092) supplemented with 10% FBS. K562 were cultured in IMDM (Gibco, #12440053) supplemented with 10% FBS. HepG2 were cultured in MEM (Gibco, #11095080) supplemented with 10 % FBS. […]
cultured in McCoy’s 5A (Sigma, M8403) supplemented with 10 % FBS and 1x GlutaMAX (Gibco, #35050061). Cells were maintained at 37 °C in a humidified 5% CO2 atmosphere. Peripheral blood mononuclear cells (PBMC) were isolated from healthy blood donors by density centrifugation. […]
Cell Titer-Glo® reagent was added to each well and total luminescence readings were performed within 15 min using the PHERAstar FSX (BMG Labtech). […]
Digested samples were analysed by nano-UPLC–MS/MS using a Dionex Ultimate 3000 nano UPLC fitted with an EASY spray column (75 μm × 500 mm, 2 μm particle size, Thermo Scientific), coupled to an Orbitrap Q Exactive instrument. […]

SMILES: COc1cc2c(NC3CCN(C(C)C)CC3)nc(C3CCCCC3)nc2cc1OCCCN1CCCC1 [UNC0638]
- competition for EHMT2 (G9a) binding to affinity matrix: strong enrichment and competition

SMILES: COc1cc2c(N(C)C3CCN(C(C)C)CC3)nc(C3CCCCC3)nc2cc1OCCCN1CCCC1 [UNC0737]
- competition for EHMT2 (G9a) binding to affinity matrix: did not ablate binding
